According to patent US20250041377A1, “PHARMACEUTICAL USE” (ENLITISA (SHANGHAI) PHARMACEUTICAL CO., LTD., priority 2018, published 2025):
Where a SMILES comes first, the peptide text is derived from it. Where no end group is shown, it is not given here. [ ]: non-standard residue; d: D form. Dopa = N[C@@H](Cc1ccc(O)c(O)c1)C(=O)O; Hyp = O=C(O)[CH]1C[CH](O)CN1; 3Hyp = 3-hydroxyproline

Legend:
[1] = tested on: full thickness skin wound on the back; assay: Acute wound model, remaining wound area; format: in vivo, C57BL/6 mice; settings: for ratio of remaining wound area of initial wound: ± SD
Description: 6-8 weeks old male C57BL/6 mice were supplied by Changzhou Cvens Experimental Animal Co. Ltd (Changzhou, Jiangsu Province, China). Prior to any experiments being conducted, mice were housed under standardized conditions (at a constant temperature of 22±2° C., with alternating 12 hour periods of light and darkness), and were fed on a standard mouse diet with water, for about a week.
General anesthesia was induced using intraperitoneal 3% chloral hydrate (1 mL/10 g of body weight). The hair on the back was shaved by a baby hair shaver and depilated with cream. The skin area was wiped and sterilized with 75% alcohol twice.
An EMS skin biopsy punch (Electron Microscopy Sciences, P.O. Box 550, 1560 Industry Road, Hatfield, PA, USA) with a 18 mm diameter was used to make a round wound on the back. The full thickness of skin was removed and the depth of the wound reached the fascia. Wounds were left open without a suture.
The model group was given same amount of normal saline. There were 8 mice in each group.
Recombinant Human Epidermal Growth Factor (rhEGF, Shanghai Haohai Biological Technology Co. Ltd, 23/F, Shanghai, China) was purchased and prepared according to the manufacturer's instructions. The lyophilized rhEGF powder (100000 IU/vial) was dissolved in 20 mL of normal saline to make a solution with a concentration of 5000 IU/mL. The working dose of rhEGF for this experiment was 1285 IU/wound.
For this experiment, Compound A was also obtained from GL Biochem (Shanghai) Ltd. The peptide powders were stored at −20° C. and dissolved in saline at concentrations of 61.8 μg/mL (Compound A), and 61 μg/mL (Compound B). 50 μL of the solutions were applied onto the wound surfaces.
Wounds were dressed with gauze and transparent dresser after drug administration. Photographs were taken for each wound every other day from Day 0. Photos were scanned into a computer, and wound areas calculated using ImageJ image analysis software (National Institutes of Health, […]).
The unhealed wound area was expressed as a percentage of the original wound area: […]
where A0 and At refer to the initial area at Day 0 and the wound area at the date of measurement (time t), respectively.

[2] = DPPH assay of antioxidant capacity; settings: 200 μL peptide solution in 3.8 mL 0.06 mg/mL DPPH; 1.5 hours, room temperature, dark; absorbance 517 nm
Description: The antioxidant capacity of Compound B was determined using a 2,2-diphenyl-1-(2,4,6-trinitrophenyl) hydrazyl (DPPH) assay.
Compounds A and B were obtained as described in Example 3 above. The peptide powders were stored at −20° C. and dissolved in saline at concentrations as indicated below. DPPH was purchased from Sigma-Aldrich China, Shanghai. Other reagents employed and identified below were purchased from Shanghai Aladdin Bio-Chem Technology Co. Ltd., China.
The DPPH method is one of the most commonly used methods in determination of antioxidant capacity. DPPH is a stable, nitrogen-centred free radical with a dark purple solution and a maximum absorption peak at 517 nm. When a free radical scavenger is present in the reaction system, it can be paired with a single electron of DPPH., and the absorption peak at 517 nm is gradually dissipated.
The degree of colour change bears a stoichiometric relationship to the number of paired electrons. Thus, antioxidant activity can be measured according to the change of absorbance. The greater the inhibition rate, the stronger the antioxidant capacity. […]
200 μL of peptide solution was added to 3.8 mL of the DPPH solution. […] The absorbance at 517 nm was measured and was denoted as A1. The absorbance of the blank control sample was denoted as A0. Thus, the percentage of the […] is calculated as: Clearance rate (%)=[A0−A1]/A0×100

[3] = Day 0, topical 50 μL/wound once daily, rhEGF 1285 IU/mouse, Compound A 3.09 μg/mouse, Compound B 3.05 μg/mouse

Molecule | ratio of remaining wound area of initial wound [1, 3] [%] | ratio of remaining wound area of initial wound ([1]; Day 1, topical once daily) [%] | ratio of remaining wound area of initial wound ([1]; Day 2, topical once daily) [%] | ratio of remaining wound area of initial wound ([1]; Day 3, topical once daily) [%] | ratio of remaining wound area of initial wound ([1]; Day 4, topical once daily) [%] | improvement rate ([1]; Day 4, versus model group) | ratio of remaining wound area of initial wound ([1]; Day 5, topical once daily) [%] | ratio of remaining wound area of initial wound ([1]; Day 6, topical once daily) [%] | DPPH clearance rate [2] [%]
CC(N)C(=O)NC(CCCCN)C(=O)N1CCCC1C(=O)NC(CO)C(=O)NC(Cc1ccc(O)cc1)C(=O)N1CC(O)CC1C(=O)N1CC(O)CC1C(=O)NC(C(=O)NC(Cc1ccc(O)cc1)C(=O)NC(CCCCN)C(=O)O)C(C)O (stereo not drawn) [Compound B, Ala-Lys-Pro-Ser-Tyr-Hyp-Hyp-Thr-Tyr-Lys] (H-AKPSY[Hyp][Hyp]TYK-OH; configuration not given here) | 79.4 ± 3.4 | 100 ± 4.5 | 96.7 ± 5.6 | 76.7 ± 4.8 | 66.5 ± 1.4 | about 10% | 55.8 ± 1.3 | 51.9 ± 1.7 | 8.9
Ala-Lys-Pro-Ser-Tyr-Hyp-Hyp-Thr-DOPA-Lys (AKPSY[3Hyp][Hyp]T[Dopa]K; listed as Mytilus edulis) [Compound A] | 77.2 ± 4.1 | 100 ± 17.1 | 81.2 ± 11.2 | 74.2 ± 0.9 | 60.9 ± 7.3 |  | 50.5 ± 11.3 | 45.8 ± 4.7 | 52.11
